According to PubChem BioAssay AID1919000 (Molecular Pharmacology Branch, DTP, NCI, 2023):
Values joined by “and” are separate entries in the source; they are usually repeats but may differ in a detail not shown here. Identical values can stand only once.

Test system: 653999-131-R-J2-PDC complex spheroids, growth % test/control
Experiment: Anticancer human tumor 653999-131-R-J2-PDC patient-derived lung adenocarcinoma cell line growth inhibition [AhR]
Settings: for viability, T/C: stronger effect = lower value
In short: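 Spheroids combined tumor cells with HUVEC endothelial cells and human MSCs as stroma. AhR antagonists were paired with standard or investigational drugs, each dosed in half-log steps down from near clinical Cmax, or from 10 microM where Cmax was unknown.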

[1] = curve of first compound, second compound 0.1 µM
[2] = curve of first compound, second compound 0.316 µM
[3] = curve of first compound, second compound 1 µM
[4] = curve of first compound, second compound 3.16 µM
[5] = curve of first compound, second compound 10 µM
[6] = second compound 0.1 µM, first compound 0.0316 µM
[7] = second compound 0.1 µM, first compound 0.1 µM
[8] = second compound 0.1 µM, first compound 0.316 µM
[9] = second compound 0.1 µM, first compound 1 µM
[10] = second compound 0.1 µM, first compound 3.16 µM
[11] = second compound 0.1 µM, first compound 10 µM
[12] = second compound 0.316 µM, first compound 0.0316 µM
[13] = second compound 0.316 µM, first compound 0.1 µM
[14] = second compound 0.316 µM, first compound 0.316 µM
[15] = second compound 0.316 µM, first compound 1 µM
[16] = second compound 0.316 µM, first compound 3.16 µM
[17] = second compound 0.316 µM, first compound 10 µM
[18] = second compound 1 µM, first compound 0.0316 µM
[19] = second compound 1 µM, first compound 0.1 µM
[20] = second compound 1 µM, first compound 0.316 µM
[21] = second compound 1 µM, first compound 1 µM
[22] = second compound 1 µM, first compound 3.16 µM
[23] = second compound 1 µM, first compound 10 µM
[24] = second compound 3.16 µM, first compound 0.0316 µM
[25] = second compound 3.16 µM, first compound 0.1 µM
[26] = second compound 3.16 µM, first compound 0.316 µM
[27] = second compound 3.16 µM, first compound 1 µM
[28] = second compound 3.16 µM, first compound 3.16 µM
[29] = second compound 3.16 µM, first compound 10 µM
[30] = second compound 10 µM, first compound 0.0316 µM
[31] = second compound 10 µM, first compound 0.1 µM
[32] = second compound 10 µM, first compound 0.316 µM
[33] = second compound 10 µM, first compound 1 µM
[34] = second compound 10 µM, first compound 3.16 µM
[35] = second compound 10 µM, first compound 10 µM
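Also: spheroids exposed to agents for seven days.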
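For viability, T/C in this document: 100% = DMSO vehicle control viability.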

CC1(C)CCC(CN2CCN(c3ccc(C(=O)NS(=O)(=O)c4ccc(NCC5CCOCC5)c([N+](=O)[O-])c4)c(Oc4cnc5[nH]ccc5c4)c3)CC2)=C(c2ccc(Cl)cc2)C1 + Cc1ccccc1N=Nc1ccc(NC(=O)c2ccnn2C)c(C)c1
IC50 [1]: > 10 µM
IC50 [2]: > 10 µM
IC50 [3]: > 10 µM
IC50 [4]: > 10 µM
IC50 [5]: > 10 µM
viability, T/C [6]: 100%
viability, T/C [7]: 99.1%
viability, T/C [8]: 103%
viability, T/C [9]: 95.1%
viability, T/C [10]: 97.7%
viability, T/C [11]: 68.7%
viability, T/C [12]: 88.8%
viability, T/C [13]: 90.6%
viability, T/C [14]: 97.7%
viability, T/C [15]: 86%
viability, T/C [16]: 92.1%
viability, T/C [17]: 64.7%
viability, T/C [18]: 99%
viability, T/C [19]: 93.1%
viability, T/C [20]: 89%
viability, T/C [21]: 99.4%
viability, T/C [22]: 91.7%
viability, T/C [23]: 73.8%
viability, T/C [24]: 99.5%
viability, T/C [25]: 90.2%
viability, T/C [26]: 94.3%
viability, T/C [27]: 90%
viability, T/C [28]: 85.6%
viability, T/C [29]: 80.8%
viability, T/C [30]: 84%
viability, T/C [31]: 94.7%
viability, T/C [32]: 83.9%
viability, T/C [33]: 88.9%
viability, T/C [34]: 81%
viability, T/C [35]: 80.5%

Nc1ccn(C2OC(CO)C(O)C2(F)F)c(=O)n1 (stereo not given)
viability, T/C (compound 0.0316 µM): 69.1% and 74.2% and 70.3%
viability, T/C (compound 0.1 µM): 63.2% and 70.2% and 62.9%
viability, T/C (compound 0.316 µM): 50.8% and 61.3% and 51.9%
viability, T/C (compound 1 µM): 41.5% and 56.2% and 43.5%
viability, T/C (compound 3.16 µM): 37.6% and 50.8% and 41.3%
viability, T/C (compound 10 µM): 32.7% and 46.7% and 36.1%

Cn1ncnc1C1c2n[nH]c(=O)c3cc(F)cc(c23)NC1c1ccc(F)cc1 (stereo not given) + CC(CO)NC(=O)c1cc(-c2ccc(Cl)cc2)nn(-c2cnn(C)c2)c1=O
IC50 [1]: > 0.1 µM
IC50 [2]: > 0.1 µM
IC50 [3]: > 0.1 µM
IC50 [4]: > 0.1 µM
IC50 [5]: > 0.1 µM
viability, T/C (second compound 0.1 µM, first compound 0.000316 µM): 104%
viability, T/C (second compound 0.1 µM, first compound 0.001 µM): 99.5%
viability, T/C (second compound 0.1 µM, first compound 0.00316 µM): 109%
viability, T/C (second compound 0.1 µM, first compound 0.01 µM): 101%
viability, T/C [6]: 102%
viability, T/C [7]: 91.9%
viability, T/C (second compound 0.316 µM, first compound 0.000316 µM): 111%
viability, T/C (second compound 0.316 µM, first compound 0.001 µM): 98.8%
viability, T/C (second compound 0.316 µM, first compound 0.00316 µM): 97.1%
viability, T/C (second compound 0.316 µM, first compound 0.01 µM): 96.3%
viability, T/C [12]: 87.2%
viability, T/C [13]: 102%
viability, T/C (second compound 1 µM, first compound 0.000316 µM): 105%
viability, T/C (second compound 1 µM, first compound 0.001 µM): 103%
viability, T/C (second compound 1 µM, first compound 0.00316 µM): 102%
viability, T/C (second compound 1 µM, first compound 0.01 µM): 106%
viability, T/C [18]: 95.5%
viability, T/C [19]: 96%
viability, T/C (second compound 3.16 µM, first compound 0.000316 µM): 99.2%
viability, T/C (second compound 3.16 µM, first compound 0.001 µM): 107%
viability, T/C (second compound 3.16 µM, first compound 0.00316 µM): 114%
viability, T/C (second compound 3.16 µM, first compound 0.01 µM): 102%
viability, T/C [24]: 97.2%
viability, T/C [25]: 100%
viability, T/C (second compound 10 µM, first compound 0.000316 µM): 106%
viability, T/C (second compound 10 µM, first compound 0.001 µM): 105%
viability, T/C (second compound 10 µM, first compound 0.00316 µM): 103%
viability, T/C (second compound 10 µM, first compound 0.01 µM): 97.1%
viability, T/C [30]: 94.8%
viability, T/C [31]: 93.2%

COc1cc(Nc2ncc3c(n2)-c2ccc(Cl)cc2C(c2c(F)cccc2OC)=NC3)ccc1C(=O)O + CC(CO)NC(=O)c1cc(-c2ccc(Cl)cc2)nn(-c2cnn(C)c2)c1=O
IC50 [1]: > 10 µM
IC50 [2]: > 10 µM
IC50 [3]: > 10 µM
IC50 [4]: > 10 µM
IC50 [5]: > 10 µM
viability, T/C [6]: 95%
viability, T/C [7]: 80.9%
viability, T/C [8]: 77.6%
viability, T/C [9]: 76.8%
viability, T/C [10]: 66%
viability, T/C [11]: 64%
viability, T/C [12]: 92.6%
viability, T/C [13]: 73.5%
viability, T/C [14]: 74.8%
viability, T/C [15]: 62.4%
viability, T/C [16]: 70.8%
viability, T/C [17]: 65.2%
viability, T/C [18]: 98.2%
viability, T/C [19]: 76.1%
viability, T/C [20]: 83.9%
viability, T/C [21]: 70.8%
viability, T/C [22]: 77.8%
viability, T/C [23]: 68.5%
viability, T/C [24]: 94.2%
viability, T/C [25]: 83%
viability, T/C [26]: 79.1%
viability, T/C [27]: 74.7%
viability, T/C [28]: 77.5%
viability, T/C [29]: 77.4%
viability, T/C [30]: 92.8%
viability, T/C [31]: 81%
viability, T/C [32]: 78.4%
viability, T/C [33]: 74%
viability, T/C [34]: 67.9%
viability, T/C [35]: 80.4%

CC(C)CC(NC(=O)C(Cc1ccccc1)NC(=O)c1cnccn1)B(O)O (stereo not given)
viability, T/C (compound 0.000949 µM): 112% and 106% and 110%
viability, T/C (compound 0.003 µM): 118% and 114% and 124%
viability, T/C (compound 0.00949 µM): 107% and 96.5% and 60.7%
viability, T/C (compound 0.03 µM): 30.4% and 28.9% and 21.5%
viability, T/C (compound 0.0949 µM): 11.3% and 14.9% and 9.51%
viability, T/C (compound 0.3 µM): 3.46% and 4.18% and 3.51%
IC50 (curve of compound): 0.0224 µM and 0.0211 µM and 0.0124 µM

CC1(C)CCC(CN2CCN(c3ccc(C(=O)NS(=O)(=O)c4ccc(NCC5CCOCC5)c([N+](=O)[O-])c4)c(Oc4cnc5[nH]ccc5c4)c3)CC2)=C(c2ccc(Cl)cc2)C1 + CC(CO)NC(=O)c1cc(-c2ccc(Cl)cc2)nn(-c2cnn(C)c2)c1=O
IC50 [1]: > 10 µM
IC50 [2]: > 10 µM
IC50 [3]: > 10 µM
IC50 [4]: > 10 µM
IC50 [5]: > 10 µM
viability, T/C [6]: 105%
viability, T/C [7]: 101%
viability, T/C [8]: 99.6%
viability, T/C [9]: 94.1%
viability, T/C [10]: 108%
viability, T/C [11]: 71.2%
viability, T/C [12]: 98%
viability, T/C [13]: 101%
viability, T/C [14]: 103%
viability, T/C [15]: 89.8%
viability, T/C [16]: 94%
viability, T/C [17]: 71%
viability, T/C [18]: 90.8%
viability, T/C [19]: 104%
viability, T/C [20]: 107%
viability, T/C [21]: 98.4%
viability, T/C [22]: 103%
viability, T/C [23]: 80.3%
viability, T/C [24]: 96.2%
viability, T/C [25]: 101%
viability, T/C [26]: 106%
viability, T/C [27]: 108%
viability, T/C [28]: 95.3%
viability, T/C [29]: 75.1%
viability, T/C [30]: 99%
viability, T/C [31]: 107%
viability, T/C [32]: 111%
viability, T/C [33]: 105%
viability, T/C [34]: 92.5%
viability, T/C [35]: 74.5%

CCN(c1cc(-c2ccc(CN3CCOCC3)cc2)cc(C(=O)NCc2c(C)cc(C)[nH]c2=O)c1C)C1CCOCC1
viability, T/C (compound 0.00949 µM): 105% and 101% and 115%
viability, T/C (compound 0.03 µM): 104% and 95.7% and 106%
viability, T/C (compound 0.0949 µM): 114% and 88.5% and 110%
viability, T/C (compound 0.3 µM): 102% and 89.3% and 100%
viability, T/C (compound 0.949 µM): 108% and 98.8% and 96.9%
viability, T/C (compound 3 µM): 94.6% and 104% and 96.3%
IC50 (curve of compound): > 3 µM
